Test results from publication PMC12613848, “First in human phase 1 study of DT2216, a selective BCL-xL degrader, in patients with relapsed/refractory solid malignancies” (Journal of Hematology & Oncology, 2025).
Read-outs that look alike come from different tables or passages of the source.

Assay: Plasma pharmacokinetics of DT2216 in patients, phase 1 dose escalation
Type: in vivo, human
Settings: human, plasma, iv, plasma; for clearance: read-out: CL (converted); for half-life: read-out: T½ (converted); for Vd: read-out: Vdss; for Tmax: median (min, max)
Procedure: Dose escalation consisted of the administration of DT2216 intravenously twice weekly at several different doses outlined in protocol attached. The starting dose was 0.04 mg/kg, established based on pre-clinical toxicity studies. Safety was evaluated using CTCAE version 5.0. The initial three dose levels enrolled one patient, following which for dose level 4 and 5, a 3 + 3 design was utilized following a 100% incremental dose increase for dose levels 2 to 5 until the first dose limiting toxicity (DLT) in cycle 1 was observed. Thereafter, a modified Fibonacci sequence was used to define dose escalation increments until the maximum tolerated dose (MTD) was reached as described in protocol. If no dose-limiting toxicity (DLT) was observed during the DLT monitoring period of first 28 days, the next patient was enrolled at the next higher dose level. Dose-limiting toxicities (DLTs) during the first treatment cycle were defined as any Grade 5 toxicity; Grade 4 neutropenia lasting > 7 days; febrile neutropenia; Grade 4 thrombocytopenia or Grade 3 thrombocytopenia with clinically significant hemorrhage or lasting ≥ 7 days; and Grade ≥ 3 non-hematologic toxicities, excluding nausea, vomiting, or diarrhea lasting ≤ 3 days or transient laboratory abnormalities resolving within 72 h. Hepatotoxicity meeting Hy’s law criteria was also considered a DLT. Transient Grade 3–4 electrolyte abnormalities resolving to ≤ Grade 2 within 72 h were not considered DLTs.
Patients were allowed a maximum of two intra-patient dose escalations. Patients received DT2216 by intravenous infusion on days 1 and 4 weekly for at least 4 weeks, with each cycle consisting of a 28-day cycle for a maximum duration of 1 year until disease progression, unacceptable toxicity, or other withdrawal criteria, as listed in the protocol. The extent of disease was evaluated using imaging studies and disease-appropriate tumor markers every 8 weeks from day 1 of the first cycle. RP2D was established based on MTD as well as other relevant data, including clinical signals of activity, PK, and PD data.
Premedication prior to each infusion was at the discretion of the investigator or according to institutional guidelines. Patient assessment and follow-up procedures can be found in the schedule of assessments in this study. The clinical response was evaluated using RECIST v1.1 per protocol. Blood samples were collected for PK analysis before and after post-infusion at defined intervals, along with platelet counts. Exploratory biomarkers include (but are not limited to) the assessment of BCL-XL and VHL levels in peripheral white blood cells (WBC).
Throughout the course of the dose escalation trial, only one dose-limiting toxicity was observed, with grade 4 thrombocytopenia at a dose level of 0.32 mg/kg. […] The pharmacokinetic parameters of DT2216 were determined in patients following doses on Cycle 1 Day 1 and Cycle 1 Day 22 (Tables 4 and 5). […] AUC0-∞ values ranged from 8650 to 72,300 ng · h/mL over the dose range of 0.04 mg/kg 0.4 mg/kg. […] The volume of distribution at steady state (Vss) was small (< 100 mL/kg) and consistent across the dose groups. Following repeated dosing, accumulation of DT2216 in plasma was not observed with twice weekly dosing, with accumulation ratio values ranging from 0.74 to 1.07 on Cycle 1 Day 22 ([…]) across the dose groups.

[1] = 0.12 mg/kg, Cycle 1 Day 22, 0.12 mg/kg IV BIW, mean (CV%), N = 1
[2] = 0.24 mg/kg, Cycle 1 Day 1, 0.24 mg/kg IV, mean (CV%), N = 7
[3] = 0.24 mg/kg, Cycle 1 Day 22, 0.24 mg/kg IV BIW, mean (CV%), N = 6
[4] = 0.32 mg/kg, Cycle 1 Day 1, 0.32 mg/kg IV, mean (CV%), N = 5
[5] = 0.32 mg/kg, Cycle 1 Day 22, 0.32 mg/kg IV BIW, mean (CV%), N = 5
[6] = 0.4 mg/kg, Cycle 1 Day 1, 0.4 mg/kg IV, mean (CV%), N = 4
[7] = 0.4 mg/kg, Cycle 1 Day 22, 0.4 mg/kg IV BIW, mean (CV%), N = 4

SMILES: Cc1ncsc1-c1ccc([C@H](C)NC(=O)[C@@H]2C[C@@H](O)CN2C(=O)[C@@H](NC(=O)CCCCCC(=O)N2CCN(CC[C@H](CSc3ccccc3)Nc3ccc(S(=O)(=O)NC(=O)c4ccc(N5CCN(CC6=C(c7ccc(Cl)cc7)CCC(C)(C)C6)CC5)cc4)cc3S(=O)(=O)C(F)(F)F)CC2)C(C)(C)C)cc1 [DT2216]
- clearance [1]: 0.138 mL/min/kg
- Cmax (0.12 mg/kg, Cycle 1 Day 22, 0.12 mg/kg IV BIW, mean (CV%), N = 1, read-out: Cmax): 2190 ng/mL
- half-life [1]: 5.24 h
- Vd [1]: 0.0665 L/kg
- Tmax (0.12 mg/kg, Cycle 1 Day 22, 0.12 mg/kg IV BIW, N = 1): 2.5 h
- AUC(0-t) (0.24 mg/kg, Cycle 1 Day 1, 0.24 mg/kg IV, mean (CV%), N = 6, read-out: AUC0−24): 24500 ng·h/mL
- AUC(0-t) (0.24 mg/kg, Cycle 1 Day 1, 0.24 mg/kg IV, mean (CV%), N = 6, read-out: AUClast): 37600 ng·h/mL
- AUC(0-inf) (0.24 mg/kg, Cycle 1 Day 1, 0.24 mg/kg IV, mean (CV%), N = 7, read-out: AUC0−∞): 36500 ng·h/mL
- clearance [2]: 0.122 mL/min/kg
- Cmax (0.24 mg/kg, Cycle 1 Day 1, 0.24 mg/kg IV, mean (CV%), N = 7, read-out: Cmax): 4080 ng/mL
- half-life [2]: 10.4 h
- Vd [2]: 0.0839 L/kg
- Tmax (0.24 mg/kg, Cycle 1 Day 1, 0.24 mg/kg IV, N = 7): 0.75 h
- AUC(0-t) (0.24 mg/kg, Cycle 1 Day 22, 0.24 mg/kg IV BIW, mean (CV%), N = 6, read-out: AUC0−24): 26300 ng·h/mL
- AUC(0-inf) (0.24 mg/kg, Cycle 1 Day 22, 0.24 mg/kg IV BIW, mean (CV%), N = 6, read-out: AUC0−∞): 30100 ng·h/mL
- AUC(0-t) (0.24 mg/kg, Cycle 1 Day 22, 0.24 mg/kg IV BIW, mean (CV%), N = 6, read-out: AUClast): 26400 ng·h/mL
- clearance [3]: 0.15 mL/min/kg
- Cmax (0.24 mg/kg, Cycle 1 Day 22, 0.24 mg/kg IV BIW, mean (CV%), N = 6, read-out: Cmax): 3090 ng/mL
- half-life [3]: 7.27 h
- Vd [3]: 0.0939 L/kg
- Tmax (0.24 mg/kg, Cycle 1 Day 22, 0.24 mg/kg IV BIW, N = 6): 2.5 h
- AUC(0-inf) (0.32 mg/kg, Cycle 1 Day 1, 0.32 mg/kg IV, mean (CV%), N = 5, read-out: AUC0−∞): 41500 ng·h/mL
- clearance [4]: 0.132 mL/min/kg
- half-life [4]: 7.09 h
- Vd [4]: 0.0683 L/kg
- AUC(0-t) (0.32 mg/kg, Cycle 1 Day 1, 0.32 mg/kg IV, mean (CV%), N = 6, read-out: AUC0−24): 33300 ng·h/mL
- AUC(0-t) (0.32 mg/kg, Cycle 1 Day 1, 0.32 mg/kg IV, mean (CV%), N = 6, read-out: AUClast): 43200 ng·h/mL
- Cmax (0.32 mg/kg, Cycle 1 Day 1, 0.32 mg/kg IV, mean (CV%), N = 6, read-out: Cmax): 5710 ng/mL
- Tmax (0.32 mg/kg, Cycle 1 Day 1, 0.32 mg/kg IV, N = 6): 0.75 h
- AUC(0-t) (0.32 mg/kg, Cycle 1 Day 22, 0.32 mg/kg IV BIW, mean (CV%), N = 5, read-out: AUC0−24): 32700 ng·h/mL
- AUC(0-inf) (0.32 mg/kg, Cycle 1 Day 22, 0.32 mg/kg IV BIW, mean (CV%), N = 5, read-out: AUC0−∞): 35000 ng·h/mL
- AUC(0-t) (0.32 mg/kg, Cycle 1 Day 22, 0.32 mg/kg IV BIW, mean (CV%), N = 5, read-out: AUClast): 32900 ng·h/mL
- clearance [5]: 0.154 mL/min/kg
- half-life [5]: 5.82 h
- Vd [5]: 0.0837 L/kg
- Cmax (0.32 mg/kg, Cycle 1 Day 22, 0.32 mg/kg IV BIW, mean (CV%), N = 6, read-out: Cmax): 4480 ng/mL
- Tmax (0.32 mg/kg, Cycle 1 Day 22, 0.32 mg/kg IV BIW, N = 6): 2.5 h
- AUC(0-t) (0.4 mg/kg, Cycle 1 Day 1, 0.4 mg/kg IV, mean (CV%), N = 4, read-out: AUC0−24): 53000 ng·h/mL
- AUC(0-inf) (0.4 mg/kg, Cycle 1 Day 1, 0.4 mg/kg IV, mean (CV%), N = 4, read-out: AUC0−∞): 73200 ng·h/mL
- AUC(0-t) (0.4 mg/kg, Cycle 1 Day 1, 0.4 mg/kg IV, mean (CV%), N = 4, read-out: AUClast): 72300 ng·h/mL
- clearance [6]: 0.0928 mL/min/kg
- Cmax (0.4 mg/kg, Cycle 1 Day 1, 0.4 mg/kg IV, mean (CV%), N = 4, read-out: Cmax): 8590 ng/mL
- half-life [6]: 10.7 h
- Vd [6]: 0.0709 L/kg
- Tmax (0.4 mg/kg, Cycle 1 Day 1, 0.4 mg/kg IV, N = 4): 0.75 h
- AUC(0-t) (0.4 mg/kg, Cycle 1 Day 22, 0.4 mg/kg IV BIW, mean (CV%), N = 4, read-out: AUC0−24): 53700 ng·h/mL
- AUC(0-inf) (0.4 mg/kg, Cycle 1 Day 22, 0.4 mg/kg IV BIW, mean (CV%), N = 4, read-out: AUC0−∞): 59500 ng·h/mL
- AUC(0-t) (0.4 mg/kg, Cycle 1 Day 22, 0.4 mg/kg IV BIW, mean (CV%), N = 4, read-out: AUClast): 54000 ng·h/mL
- clearance [7]: 0.117 mL/min/kg
- Cmax (0.4 mg/kg, Cycle 1 Day 22, 0.4 mg/kg IV BIW, mean (CV%), N = 4, read-out: Cmax): 6270 ng/mL
- half-life [7]: 6.7 h
- Vd [7]: 0.0729 L/kg
- Tmax (0.4 mg/kg, Cycle 1 Day 22, 0.4 mg/kg IV BIW, N = 4): 2.5 h
- AUC(0-inf) (over dose range 0.04 mg/kg to 0.4 mg/kg IV, read-out: AUC0-∞ values): 8650 to 72300 ng·h/mL
- Cmax (over dose range 0.04 mg/kg to 0.4 mg/kg IV, read-out: mean Cmax values): 738 to 8590 ng/mL
